Results reported in publication PMC10138506, “Design, Synthesis and Cytotoxic Activity of Novel Salicylaldehyde Hydrazones against Leukemia and Breast Cancer” (International Journal of Molecular Sciences, 2023).
Read-outs that look alike come from different tables or passages of the source.

Tests used:
BV-173 cells = test: MTT-dye reduction cytotoxicity assay, BV-173; assay type: cell-based, human; settings: for IC50: Homo sapiens, BV-173
Experimental: (§1) The research included four leukemic and three cancer human cell lines: HL-60 (acute myeloid leukemia), SKW-3 (KE-37 derivative) (T-cell leukemia), BV-173 and K-562 (chronic myeloid leukemia), MDA-MB-231 (ER-negative breast carcinoma), MCF-7 (ER-positive breast adenocarcinoma), and SaOS-2 (osteogenic sarcoma). The cells were provided from the German Collection of Microorganisms and Cell Cultures (DSMZ, Braunschweig, Germany). The solid tumor cell lines (MDA-MB-231, MCF-7, and SaOS-2) were incubated in 90% RPMI-1640 supplemented with 10% fetal bovine serum (FBS), non-essential amino acids, 1 mM sodium pyruvate, and […] human insulin as monolayer adherent cultures. The remaining cell lines were cultivated as a suspension culture in cell culture flasks at 37 °C in an incubator “BB 16-Function Line” Heraeus (Kendro, Hanau, Germany) with humidified atmosphere and 5% CO2 under standard conditions–RPMI-1640 liquid media supplemented with 10% FBS and 2 mM L-glutamine. The cells were kept in log phase by supplementing with fresh media after removing cell suspension aliquots two or three times each week.
(§2) At least eight wells were used for each concentration.

MDA-MB-231 cells = test: MTT-dye reduction cytotoxicity assay, MDA-MB-231; assay type: cell-based, human; settings: for IC50: Homo sapiens, MDA-MB-231
Experimental: as §1, §2

KE-37 cells = test: MTT-dye reduction cytotoxicity assay, KE-37; assay type: cell-based, human; settings: for IC50: Homo sapiens, KE-37
Experimental: as §1, §2

MCF-7 cells = test: MTT-dye reduction cytotoxicity assay, MCF-7; assay type: cell-based, human; settings: for IC50: Homo sapiens, MCF7
Experimental: as §1, §2

HL-60 cells = test: MTT-dye reduction cytotoxicity assay, HL-60; assay type: cell-based, human; settings: for IC50: Homo sapiens, HL-60
Experimental: as §1, §2

[1] = MTT-dye reduction cytotoxicity assay, normal HEK-293; settings: human
Experimental: (§3) To assess the selectivity of the newly synthesized derivatives, they were tested on the normal human embryonic kidney HEK-293 cell line. The derived IC50 values were used to calculate the selectivity index according to the formula SI = IC50 (normal cells)/IC50 (cancer cells).
The cytotoxic activity of the examined substances was determined using Mossman’s MTT [3-(4,5-dimethylthiazol-2-yl)-2,5-diphenyltetrazolium bromide] dye reduction assay. The approach is based on the reduction of the yellow tetrazolium salt MTT to a violet formazan in live cells via mitochondrial succinate dehydrogenase. In brief, exponentially developing cells were seeded at a density of 1 × 10^5 cells per ml in 96-well flat-bottomed microplates (100 μL/well), and after 24 h of incubation at 37 °C, they were treated to varied doses of the tested substances for 72 h. At least eight wells were used for each concentration. Following the incubation with the test compounds, aliquots of 10 μL MTT solution (10 mg/mL in PBS) were applied to each well. The microplates were then incubated at 37 °C for 4 h before the MTT-formazan crystals were dissolved with 100 μL/well 5% HCOOH in 2-propanol. The MTT-formazan absorbance was measured at 580 nm using a microprocessor-controlled microplate reader (Labexim LMR-1).
The cell survival data were standardized as a percentage of the untreated control (set as 100% viability). The biological data were processed statistically using Student’s t-test, where values were considered statistically significant at p ≤ 0.05. The corresponding IC50 values were obtained to allow quantitative merit for the assessment of the relative potencies of the compounds under investigation. Each data point represents the arithmetic mean ± standard deviation (sd) of at least eight independent experiments.

SaOS-2 cells = test: MTT-dye reduction cytotoxicity assay, SaOS-2; assay type: cell-based, human; settings: for IC50: Homo sapiens, SAOS-2
Experimental: as §1, §2

K-562 cells = test: MTT-dye reduction cytotoxicity assay, K-562; assay type: cell-based, human; settings: for IC50: Homo sapiens, K562; for Ligand Efficiency (LE) K-562: LE = pIC50/number of heavy atoms
Experimental: as §1, §2

[2] = test system: HL-60, KE-37, K-562, BV-173, SaOS-2, MDA-MB-231, MCF-7 cell lines; test: Average over the cancer cell lines tested (LE, SI); assay type: cell-based, human; settings: average over seven cancer cell lines
Experimental: as §3
The training set of salicylaldehyde hydrazones contained 11 compounds synthesized and tested before in our Lab. Their anticancer activities were measured and expressed as IC50 values on the following cell lines: HL-60, KE-37, K-562, BV-173, SaOS-2, MDA-MB-231, and MCF-7. For the purposes of SAR analysis, the IC50 values were converted in p-units (−logIC50) and ligand efficiencies (LEs) were calculated according to the formula: LE = pIC50/n, where n is the count of non-hydrogen atoms in the molecule.

[3] = training set, some activities published before [26-32], the rest measured for this study, read-out: IC50 ± standard deviation, BV-173
[4] = training set, some activities published before [26-32], the rest measured for this study, read-out: IC50 ± standard deviation, MDA-MB-231
[5] = training set, some activities published before [26-32], the rest measured for this study, read-out: IC50 ± standard deviation, KE-37
[6] = training set, some activities published before [26-32], the rest measured for this study, read-out: IC50 ± standard deviation, MCF-7
[7] = training set, some activities published before [26-32], the rest measured for this study, read-out: IC50 ± standard deviation, HL-60
[8] = 72 h treatment, read-out: IC50 exp, SaOS-2
[9] = training set, some activities published before [26-32], the rest measured for this study, read-out: IC50 ± standard deviation, SaOS-2
[10] = SI = IC50 (HEK-293)/IC50 (cancer cells)
[11] = compound 13 versus benzoyl analog
[12] = training set, some activities published before [26-32], the rest measured for this study, read-out: IC50 ± standard deviation, K-562

## COc1ccc(O)c(/C=N/NC(=O)c2ccccc2)c1 [Compound 9]
BV-173 cells; [3]
  IC50: 3.15 ± 0.8 µM
MDA-MB-231 cells; [4]
  IC50: 4.46 ± 1.1 µM
KE-37 cells; [5]
  IC50: 3.38 ± 1 µM
MCF-7 cells; [6]
  IC50: 0.91 ± 0.3 µM
HL-60 cells; [7]
  IC50: 5.29 ± 1.2 µM

## N[C@@H](Cc1ccc(N(CCCl)CCCl)cc1)C(=O)O [Melphalan, 2-amino-3-[4-bis(2-chloroethyl)amino]phenylpropanoic acid, reference compound]
[1]
  IC50 at 72 h: 24.8 ± 2.9 µM
SaOS-2 cells; [8]
  IC50: 31.4 ± 5.4 µM
SaOS-2 cells; [9]
  IC50: 31.4 ± 5.4 µM

## COc1ccc(C=NNC(=O)c2ccc(O)cc2)c(O)c1 [Compound 13, 4-methoxysalicylaldehyde-4-hydroxybenzoylhydrazone]
K-562 cells; 72 h treatment, read-out: IC50 exp, K-562
  IC50: 8.75 ± 1.29 µM
K-562 cells; [10]
  SI (selectivity index) K-562: 6
K-562 cells; [11]
  reduction of cytotoxicity by hydroxy group in the benzoyl ring, K-562: 292 fold
[1]; HEK-293 cells (normal human embryonic kidney)
  IC50 at 72 h: 56.7 ± 4.35 µM
SaOS-2 cells; [8]
  IC50: 26 ± 3.65 µM
SaOS-2 cells; [10]
  SI (selectivity index) SaOS-2: 2
SaOS-2 cells; [11]
  reduction of cytotoxicity by hydroxy group in the benzoyl ring, sarcomic cells: 15.5 fold
BV-173 cells; 72 h treatment, read-out: IC50 exp, BV-173
  IC50: 3.88 ± 1.16 µM
BV-173 cells; [10]
  SI (selectivity index) BV-173: 15
BV-173 cells; [11]
  reduction of cytotoxicity by hydroxy group in the benzoyl ring, BV-173: 3 fold
other
  melting point: 216 to 217 °C
[2]
  average SI: 14
MDA-MB-231 cells; 72 h treatment, read-out: IC50 exp, MDA-MB-231
  IC50: 2.9 ± 0.32 µM
MDA-MB-231 cells; [10]
  SI (selectivity index) MDA-MB-231: 20
MDA-MB-231 cells; [11]
  reduction of cytotoxicity by hydroxy group in the benzoyl ring, MDA-MB-231: 1.25 fold
KE-37 cells; 72 h treatment, read-out: IC50 exp, KE-37
  IC50: 10.8 ± 2.81 µM
KE-37 cells; [10]
  SI (selectivity index) KE-37: 5
MCF-7 cells; 72 h treatment, read-out: IC50 exp, MCF-7
  IC50: 1.38 ± 0.08 µM
MCF-7 cells; [10]
  SI (selectivity index) MCF-7: 41
MCF-7 cells; [11]
  reduction of cytotoxicity by hydroxy group in the benzoyl ring, MCF-7: 6 fold
HL-60 cells; 72 h treatment, read-out: IC50 exp, HL-60
  IC50: 8.9 ± 2.47 µM
HL-60 cells; [10]
  SI (selectivity index) HL-60: 6

## COc1ccc(O)c(/C=N/NC(=O)c2ccncc2)c1 [Compound 11]
BV-173 cells; [3]
  IC50: 2.95 ± 0.8 µM
MDA-MB-231 cells; [4]
  IC50: 5.58 ± 1.3 µM
KE-37 cells; [5]
  IC50: 10.9 ± 2.2 µM
MCF-7 cells; [6]
  IC50: 3 ± 0.6 µM
HL-60 cells; [7]
  IC50: 6.68 ± 1.4 µM

## COc1ccc(C=NNC(=O)c2ccncc2)c(O)c1 (hydrate or solvate) [Compound 14, 4-methoxysalicylaldehyde isonicotinoylhydrazone]
other
  melting point: 232 to 233 °C

## O=C(N/N=C/c1cc([N+](=O)[O-])ccc1O)c1ccccc1 [Compound 6]
K-562 cells; [12]
  IC50: 7.94 ± 2.3 µM
K-562 cells
  Ligand Efficiency (LE) K-562: 0.243
SaOS-2 cells; [9]
  IC50: 41.9 ± 5.1 µM
BV-173 cells; [3]
  IC50: 2.39 ± 0.3 µM
MDA-MB-231 cells; [4]
  IC50: 2.8 ± 2.7 µM
KE-37 cells; [5]
  IC50: 6.38 ± 0.2 µM
MCF-7 cells; [6]
  IC50: 0.25 ± 0.03 µM
HL-60 cells; [7]
  IC50: 5.64 ± 1.1 µM

## COc1cccc(/C=N/NC(=O)c2ccncc2)c1O [Compound 3]
K-562 cells; [12]
  IC50: 8.7 ± 2 µM
K-562 cells
  Ligand Efficiency (LE) K-562: 0.253
SaOS-2 cells; [9]
  IC50: 11.9 ± 3.2 µM
BV-173 cells; [3]
  IC50: 3.7 ± 1.1 µM
MDA-MB-231 cells; [4]
  IC50: 16.4 ± 2 µM
KE-37 cells; [5]
  IC50: 3.3 ± 1.2 µM
MCF-7 cells; [6]
  IC50: 11.7 ± 2.4 µM
HL-60 cells; [7]
  IC50: 2.7 ± 0.9 µM

## O=C(N/N=C/c1cc(Br)ccc1O)c1ccncc1 [Compound 5]
K-562 cells; [12]
  IC50: 0.14 ± 0.09 µM
K-562 cells
  Ligand Efficiency (LE) K-562: 0.360
SaOS-2 cells; [9]
  IC50: 146 ± 8.9 µM
BV-173 cells; [3]
  IC50: 0.63 ± 0.2 µM
MDA-MB-231 cells; [4]
  IC50: 38.4 ± 2 µM
KE-37 cells; [5]
  IC50: 2.53 ± 1 µM
MCF-7 cells; [6]
  IC50: 0.26 ± 0.03 µM
HL-60 cells; [7]
  IC50: 4.13 ± 1.2 µM
